# According to PubChem BioAssay (NCI):
# Where “and” joins values, the source holds several entries; their conditions need not be identical. Equal entries are not always repeated.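 Step 1: Grow cells in 96-well plates. Step 2: Expose to compound for 48 hours at 5 concentrations. Step 3: Interpolate endpoints linearly; if unreached, use highest concentration. The concentration for 50% growth inhibition is given as GI50. TGI denotes the concentration required for complete inhibition of growth.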 Where a SMILES comes first, the peptide text is derived from it. The star is where a group is joined. Boc = CC(C)(C)OC(=O)*; nBu = CCCC*
# Assays:
# Test in all cases: DTP human tumour cell line panel, 48 h
# OVCAR-8 ovarian = test system: OVCAR-8 ovarian
# HOP-62 NSCLC = test system: HOP-62 NSCLC
# NCI-H23 lung = test system: NCI-H23 lung
# SNB-75 CNS = test system: SNB-75 CNS
# SK-MEL-2 melanoma = test system: SK-MEL-2 melanoma
# XF 498 CNS = test system: XF 498 CNS
# SNB-78 CNS = test system: SNB-78 CNS
# DMS 114 small cell lung = test system: DMS 114 small cell lung
# M19-MEL melanoma = test system: M19-MEL melanoma
# DLD-1 colon = test system: DLD-1 colon
# HOP-18 NSCLC = test system: HOP-18 NSCLC
# LXFL 529 NSCLC = test system: LXFL 529 NSCLC
# DMS 273 small cell lung = test system: DMS 273 small cell lung
SMILES,TGI (OVCAR-8 ovarian),TGI (HOP-62 NSCLC),TGI (NCI-H23 lung),TGI (SNB-75 CNS),TGI (SK-MEL-2 melanoma),further results
COc1cc(C2S/C(=C/c3ccccc3)C(=O)N2c2cccc(NC(C)=O)c2)cc(OC)c1OC (centres undefined),> 100 µM,> 100 µM,> 100 µM,28 µM,,
C/C(C=O)=C/[C@@]1(C)O[C@@H](C)[C@@](C)(O)[C@@H]1O,40 µM,> 100 µM,> 100 µM,,> 100 µM,
C#C[C@]1(O)CC[C@H]2[C@@H]3CCc4cc(O)ccc4[C@H]3CC[C@@]21C,> 100 µM,,69.4 µM,42.8 µM,82.9 µM,TGI (XF 498 CNS): 98 µM; TGI (SNB-78 CNS): > 100 µM; TGI (DMS 114 small cell lung): > 100 µM; TGI (M19-MEL melanoma): 57.2 µM; TGI (DLD-1 colon): 60.7 µM; TGI (HOP-18 NSCLC): > 100 µM; TGI (LXFL 529 NSCLC): > 100 µM
COC(=O)/C=C\C(C#N)(C#N)N=Cc1ccc(OC)cc1,9.46 µM,33.9 µM,28.3 µM,34.2 µM,35.5 µM,
Cc1c(-c2ccccc2)[nH]c2cn[nH]c(=O)c12,> 100 µM,> 100 µM,> 100 µM,,> 100 µM,
COc1cccc(C23CCN(C)C(CC(O)C2)C3)c1OC (centres undefined),> 100 µM,> 100 µM,> 100 µM,,> 100 µM,
O=C(O)c1cc2ccccc2c(N=Nc2ccc(S(=O)(=O)Nc3ncccn3)cc2)c1O,> 100 µM,> 100 µM,,> 100 µM,> 100 µM,
CN(CCc1ccccn1)c1ccc2c(c1)C(=O)c1ccccc1-2,> 100 µM,> 100 µM,> 100 µM,> 100 µM,> 100 µM,
CCc1n[nH]c(=O)n1/N=C(\C)c1ccccc1,> 100 µM,> 100 µM,> 100 µM,,> 100 µM,
O=C(Cc1nc2ccccc2[nH]c1=O)c1c[nH]c2ccccc12,45.9 µM,68.2 µM,> 100 µM,> 100 µM,28.9 µM,
CCOc1nc2c(N3CCCC3)nc(N3CCNCC3)nc2nc1NCc1ccccc1,4.1 µM,2.33 µM,3.45 µM,2.46 µM,3.11 µM,
CC1(C)OC[C@@H]([C@@]2(COC(c3ccccc3)(c3ccccc3)c3ccccc3)CC=CC(=O)O2)O1,> 100 µM,> 100 µM,> 100 µM,59.3 µM,31.1 µM,
COc1ccc(C2C3CCc4ccccc4C3=NN2S(=O)(=O)c2cccc(C(=O)O)c2OC)cc1 (centres undefined),> 100 µM,> 100 µM,> 100 µM,,60 µM,
Cc1ccc(-c2cc(-c3ccc(Cl)cc3)nc(/N=C3\C(=O)N(CN(C)C)c4ccccc43)n2)cc1,> 100 µM,> 100 µM,> 100 µM,> 100 µM,> 100 µM,
Oc1ccccc1C=Nc1ccc(-c2nc3ccccc3s2)cc1,> 100 µM,52.2 µM,> 100 µM,99.3 µM,50.5 µM,
CCCCOc1ccc(CC(NC(=O)OC(C)(C)C)C(=O)NC(C)C(=O)NC(Cc2ccccc2)C(=O)NCC(N)=O)cc1 (centres undefined) (Boc-Y(nBu)AFG-NH2; configuration not given here),> 100 µM,> 100 µM,> 100 µM,> 100 µM,51 µM,

SMILES,TGI (OVCAR-8 ovarian),TGI (HOP-62 NSCLC),TGI (NCI-H23 lung),TGI (SNB-75 CNS),TGI (SK-MEL-2 melanoma),further results
N#C/C(=C(/O)CCl)c1nc2ccccc2o1,14.9 µM,41.9 µM,25.4 µM,23.4 µM,11.6 µM,
O=P(NCCCO)(OCc1ccccc1)N(CCCl)CCCl (centres undefined),> 100 µM,,> 100 µM,> 100 µM,> 100 µM,TGI (XF 498 CNS): > 100 µM; TGI (SNB-78 CNS): > 100 µM; TGI (DMS 273 small cell lung): > 100 µM; TGI (M19-MEL melanoma): > 100 µM; TGI (DLD-1 colon): > 31.6 µM; TGI (HOP-18 NSCLC): > 100 µM
O=[N+]([O-])c1ccc(N=Nc2c(O)[nH]c3ccccc23)c([N+](=O)[O-])c1,27.8 µM,24.2 µM,25.8 µM,72.3 µM,,
Nc1nc(SCC(=O)c2ccc(Br)cc2)c2[nH]cnc2n1,> 100 µM,> 100 µM,> 100 µM,73 µM,> 100 µM,
C=C1C(O)C2(O)OCC34C(CC5C(C)=CC(=O)C(O)C5(C)C23)OC(=O)C(OC(=O)C/C=C/CCCCCCCC)C14 (centres undefined),0.0241 µM,0.041 µM,0.0815 µM,0.0667 µM,0.0361 µM,TGI (XF 498 CNS): 0.0351 µM; TGI (SNB-78 CNS): 0.057 µM; TGI (DMS 114 small cell lung): 0.0205 µM; TGI (DMS 273 small cell lung): 0.0964 µM; TGI (M19-MEL melanoma): 0.0244 µM; TGI (DLD-1 colon): 0.0287 µM; TGI (HOP-18 NSCLC): 1.1 µM
CC(C)CC(N)C(=O)NC(C(=O)NC(CCCNC(=N)N)C(=O)NC(CS)C(=O)NC1CSCC(C(=O)NC(Cc2ccccc2)C(=O)NC(C(=O)NC(CCCNC(=N)N)C(=O)O)C(C)C)NC(=O)C2CCCN2C(=O)C(CCCCN)NC(=O)C2CCCN2C(=O)C2CCCN2C(=O)C(Cc2ccc(O)cc2)NC(=O)C(CO)NC(=O)C(CCCCN)NC(=O)C(C(C)O)NC(=O)C(Cc2c[nH]c3ccccc23)NC1=O)C(C)C (centres undefined),> 25 µM,> 25 µM,> 25 µM,,> 25 µM,
COc1ccc(N2C(=O)C(=O)C3(CCCCC3)C2=O)c2ccccc12,> 10 µM,> 10 µM,> 10 µM,> 10 µM,> 10 µM,
O=C(Nc1ccccc1)Oc1ccc(C(=S)Nc2ccc(Br)cc2)cc1,29.2 µM,82.1 µM,37.2 µM,,47.8 µM,
CC(=O)c1ccc(Nc2c3ccccc3nc3occc23)cc1,7.01 µM,> 100 µM,17.1 µM,,0.0645 µM,
O=C1c2c(Br)sc(Br)c2[C@@H](O)[C@H]1O,> 44.4 µM,30.6 µM,21 µM,31.6 µM,32.6 µM,
Cc1ccc(-c2cn3c(nc4ccccc43)c(/C=C/c3ccco3)n2)cc1,,> 100 µM,> 100 µM,> 100 µM,72.9 µM,
COc1ccc(CCn2cncn2)cc1,,> 100 µM,> 100 µM,> 100 µM,,TGI (SNB-78 CNS): > 100 µM; TGI (DMS 114 small cell lung): > 100 µM; TGI (DMS 273 small cell lung): > 100 µM; TGI (M19-MEL melanoma): > 100 µM; TGI (DLD-1 colon): > 100 µM; TGI (LXFL 529 NSCLC): > 100 µM
O=c1c2cc(O)ccc2n2nnc3ccc(NCCNCCO)c1c32,42 µM and 17.7 µM,43.4 µM and 18 µM,42.3 µM and 20.2 µM,17 µM and 18.3 µM,23.5 µM and 13.5 µM,GI50 (HOP-62 NSCLC): 10.1 µM and 3.25 µM; TGI (XF 498 CNS): 12.4 µM; GI50 (SNB-78 CNS): 4.78 µM and 2.11 µM; TGI (SNB-78 CNS): > 55.9 µM and 14.4 µM; GI50 (SK-MEL-2 melanoma): 9.4 µM and 4.34 µM; TGI (DMS 114 small cell lung): 14.8 µM and 9.51 µM; GI50 (SNB-75 CNS): 2.68 µM and 5.5 µM; TGI (DMS 273 small cell lung): > 59.3 µM; GI50 (M19-MEL melanoma): 6.8 µM and 2.68 µM; TGI (M19-MEL melanoma): 20.7 µM and 12.1 µM; GI50 (DLD-1 colon): 23.9 µM and 6.6 µM; TGI (DLD-1 colon): > 100 µM and 40.7 µM; TGI (HOP-18 NSCLC): > 100 µM and 69.1 µM; TGI (LXFL 529 NSCLC): 18.1 µM and 13 µM
COc1ccccc1-c1c(C#N)c(N)[nH]c(=S)c1C#N,> 100 µM,> 100 µM,> 100 µM,,> 100 µM,
CN(C)c1ccc(-c2ccc(-c3ccc(C(=N)N)cn3)o2)cc1,,3.32 µM,,3 µM,3.65 µM,GI50 (HOP-62 NSCLC): 1.74 µM; GI50 (SK-MEL-2 melanoma): 1.96 µM; GI50 (SNB-75 CNS): 1.59 µM
